Test system: S. griseolus ATCC 11796
Assay: Western blot for cytochrome P450SU1 after induction with 10001 (Example 3)
Type: cell-based, Streptomyces griseolus
Settings: 36 mg of 10001 added six hours before harvesting; not found without 10001
Protocol: Western blot analysis of proteins is performed by separating the proteins by SDS polyacrylamide gel electrophoresis (Laemmli, Nature 227: 680, 1970, herein incorporated by reference) and then transferring the proteins to nitrocellulose and detecting the protein of interest with antibody specific for the protein as described by Towbin et al., Proc. Natl. Acad. Sci. U.S.A. 76: 4350-4354 (1979) and Bio-Rad bulletin 885 85-0335. (Bio-Rad Laboratories, Richmond, CA 94804), each herein incorporated by reference. Antiserum to cytochrome P450SU1 was that described by O'Keefe et al., Recent Advances in Phytochemistry 21: 151-173 (1987), herein incorporated by reference.
S. lividans containing pCAO200, containing pCAO200SU1-FeS-B#9 and S. lividans containing […] were grown separately in 400 ml of YEME broth with-shaking at 30° C. for approximately 36 hours. S. griseolus ATCC 11796 was grown in 400 ml of sporulation broth for approximately 30 hours. Six hours before harvesting the cells from the cultures, 200 ml of YEME was added to the S. lividans cells. Six hours before harvesting, the S. griseolus culture was split into two 200 ml aliquots and 100 ml of fresh sporulation broth was added to each. […] Cytochrome P450SU1 was detected in the cultures of S. lividans transformed with either pCAO200SU1-FeS-B#9 or pCAO200SU1#12 and in the S. griseolus ATCC 11796 culture induced with 10001.

CCOC(=O)c1ccccc1S(=O)(=O)NC(=O)Nc1nc(Cl)cc(OC)n1 [compound 10001, N-[(4-chloro-6-methoxy-pyrimidin-2-yl)aminocarbonyl]-2-ethoxycarbonylbenzenesulfonamide]
Cytochrome P450SU1 in culture (Western blot): detected

— patent US5349127A, “Expression of herbicide metabolizing cytochromes P450” (priority 1992, dated 1994)
